{"source": "patent US8389513B2", "about": "“2-amino-5,5-difluoro-5,6-dihydro-4H-[1,3]oxazin-4-yl)-phenyl]-amides” (Hoffmann-La Roche Inc., priority 2009, dated 2013)", "note": "Structures can show the parent of a compound that is named as a salt.", "data": [{"biological_target": "T1, BACE1 (Homo sapiens, UniProt P56817)", "T1 construct": "Human HEK293 cells which are stably transfected with a vector expressing a cDNA of the human APP wt gene (APP695); endogenous in cells; host or cells: HEK293 stably transfected with human APP695 wt", "T1 sequence (P56817 46-501)": "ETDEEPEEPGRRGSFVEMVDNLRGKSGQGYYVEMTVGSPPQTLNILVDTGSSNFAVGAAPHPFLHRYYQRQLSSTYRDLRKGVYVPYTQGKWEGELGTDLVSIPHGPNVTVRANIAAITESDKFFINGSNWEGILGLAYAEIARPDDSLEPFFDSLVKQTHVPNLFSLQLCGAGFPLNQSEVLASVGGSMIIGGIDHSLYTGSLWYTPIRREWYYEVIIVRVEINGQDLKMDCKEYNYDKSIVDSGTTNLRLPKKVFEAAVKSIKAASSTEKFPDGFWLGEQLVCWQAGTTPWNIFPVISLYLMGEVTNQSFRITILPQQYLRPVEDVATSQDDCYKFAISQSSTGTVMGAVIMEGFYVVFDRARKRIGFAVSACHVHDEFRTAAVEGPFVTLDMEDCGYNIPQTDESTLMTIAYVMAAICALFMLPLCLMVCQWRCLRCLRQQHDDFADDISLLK", "experiment": "Cellular Aβ-lowering assay (Aβ40 ELISA)", "assay_type": "cell-based", "conditions": "HEK293 cells stably expressing human APP695; Aβ40 in culture supernatant; read-out: BACE1 cell act. Aβ40 IC50", "experimental": "Cellular Aβ-Lowering Assay:\nHuman HEK293 cells which are stably transfected with a vector expressing a cDNA of the human APP wt gene (APP695) were used to assess the potency of the compounds in a cellular assay. The cells were seeded in 96-well microtiter plates in cell culture medium (Iscove, plus 10% (v/v) fetal bovine serum, glutamine, penicillin/streptomycin) to about 80% confluence and the compounds were added at a 10× concentration in 1/10 volume of medium without FCS containing 8% DMSO (final concentration of DMSO was kept at 0.8% v/v). After 18-20 hrs incubation at 37° C. and 5% CO2 in a humidified incubator the culture supernatant was harvested for the determination of Aβ40 concentrations. […] Subsequently the wells of the microtiter plate were washed extensively with Tris-buffered saline containing 0.05% Tween 20 and the assay was developed with tetramethylbenzidine/H2O2 in citric acid buffer. After stopping the reaction with one volume 1 NH2SO4 the reaction was measured in an ELISA reader at 450 nm wavelength. The concentrations of Aβ in the culture supernatants were calculated from a standard curve obtained with known amounts of pure Aβ peptide.", "units": {"IC50": "nM"}, "values": [{"smiles": "CCc1nc(C(=O)Nc2ccc(F)c([C@@]3(C)N=C(N)OCC3(F)F)c2)co1", "note": "[Example 56, 2-Ethyl-oxazole-4-carboxylic acid [3-((R)-2-amino-5,5-difluoro-4-methyl-5,6-dihydro-4H-[1,3]oxazin-4-yl)-4-fluoro-phenyl]-amide]", "IC50": 140}, {"smiles": "CC1(C)OC(N)=N[C@](C)(c2cc(NC(=O)c3ccn(C(F)F)n3)ccc2F)C1(F)F", "note": "[Example 38, 1-Difluoromethyl-1H-pyrazole-3-carboxylic acid [3-((R)-2-amino-5,5-difluoro-4,6,6-trimethyl-5,6-dihydro-4H-[1,3]oxazin-4-yl)-4-fluoro-phenyl]-amide]", "IC50": 6}, {"smiles": "C[C@]1(c2cc(NC(=O)c3coc(CF)n3)ccc2F)N=C(N)OCC1(F)F", "note": "[Example 79, 2-Fluoromethyl-oxazole-4-carboxylic acid [3-((R)-2-amino-5,5-difluoro-4-methyl-5,6-dihydro-4H-[1,3]oxazin-4-yl)-4-fluoro-phenyl]-amide formate]", "IC50": 3}, {"smiles": "C[C@]1(c2cc(NC(=O)c3nn(CC(F)(F)F)cc3Cl)ccc2F)N=C(N)OCC1(F)F", "note": "[Example 78, 4-Chloro-1-(2,2,2-trifluoro-ethyl)-1H-pyrazole-3-carboxylic acid [3-((R)-2-amino-5,5-difluoro-4-methyl-5,6-dihydro-4H-[1,3]oxazin-4-yl)-4-fluoro-phenyl]-amide]", "IC50": 1770}, {"smiles": "C[C@]1(c2cc(NC(=O)c3ccc(C(N)=O)cn3)ccc2F)N=C(N)OCC1(F)F", "note": "[Example 72]", "IC50": 230}, {"smiles": "C[C@]1(c2cc(NC(=O)c3ccc(C#N)c[n+]3[O-])ccc2F)N=C(N)OCC1(F)F", "note": "[Example 83, 5-Cyano-1-oxy-pyridine-2-carboxylic acid [3-((R)-2-amino-5,5-difluoro-4-methyl-5,6-dihydro-4H-[1,3]oxazin-4-yl)-4-fluoro-phenyl]-amide]", "IC50": 310}, {"smiles": "C[C@]1(c2cc(NC(=O)c3coc(CCl)n3)ccc2F)N=C(N)OCC1(F)F", "note": "[Example 57, 2-Chloromethyl-oxazole-4-carboxylic acid [3-((R)-2-amino-5,5-difluoro-4-methyl-5,6-dihydro-4H-[1,3]oxazin-4-yl)-4-fluoro-phenyl]-amide]", "IC50": 73}, {"smiles": "CC1(C)OC(N)=N[C@](C)(c2cc(NC(=O)c3ccc(OCC(F)F)cn3)ccc2F)C1(F)F", "note": "[Example 28, 5-(2,2-Difluoro-ethoxy)-pyridine-2-carboxylic acid [3-((R)-2-amino-5,5-difluoro-4,6,6-trimethyl-5,6-dihydro-4H-[1,3]oxazin-4-yl)-4-fluoro-phenyl]-amide]", "IC50": 200}, {"smiles": "CC1(C)OC(N)=N[C@](C)(c2cc(NC(=O)c3cnc(OCC4CC4)cn3)ccc2F)C1(F)F", "note": "[Example 36, 5-Cyclopropylmethoxy-pyrazine-2-carboxylic acid [3-((R)-2-amino-5,5-difluoro-4,6,6-trimethyl-5,6-dihydro-4H-[1,3]oxazin-4-yl)-4-fluoro-phenyl]-amide]", "IC50": 2460}, {"smiles": "CCn1cc(Cl)c(C(=O)Nc2ccc(F)c([C@@]3(C)N=C(N)OCC3(F)F)c2)n1", "note": "[Example 77, 4-Chloro-1-ethyl-1H-pyrazole-3-carboxylic acid [3-((R)-2-amino-5,5-difluoro-4-methyl-5,6-dihydro-4H-[1,3]oxazin-4-yl)-4-fluoro-phenyl]-amide]", "IC50": 100}, {"smiles": "CC(=O)Nc1ccc(F)c([C@@]2(C)N=C(N)OCC2(F)F)c1", "note": "[Example 73, N-[3-((R)-2-Amino-5,5-difluoro-4-methyl-5,6-dihydro-4H-[1,3]oxazin-4-yl)-4-fluoro-phenyl]-acetamide]", "IC50": 180}, {"smiles": "C[C@]1(c2cc(NC(=O)c3ccc(C#CC4CC4)cn3)ccc2F)N=C(N)OCC1(F)F", "note": "[Example 40, 5-Cyclopropylethynyl-pyridine-2-carboxylic acid [3-((R)-2-amino-5,5-difluoro-4-methyl-5,6-dihydro-4H-[1,3]oxazin-4-yl)-4-fluoro-phenyl]-amide]", "IC50": 460}, {"smiles": "CC1(C)OC(N)=N[C@](C)(c2cc(NC(=O)c3ccc(OCC4CC4)nc3)ccc2F)C1(F)F", "note": "[Example 31, N-[3-((R)-2-Amino-5,5-difluoro-4,6,6-trimethyl-5,6-dihydro-4H-[1,3]oxazin-4-yl)-4-fluoro-phenyl]-6-cyclopropylmethoxy-nicotinamide]", "IC50": 2810}, {"smiles": "C[C@]1(c2cc(NC(=O)/C=C/c3ccco3)ccc2F)N=C(N)OCC1(F)F", "note": "[Example 82, (E)-N-[3-((R)-2-Amino-5,5-difluoro-4-methyl-5,6-dihydro-4H-[1,3]oxazin-4-yl)-4-fluoro-phenyl]-3-furan-2-yl-acrylamide]", "IC50": 910}, {"smiles": "Cc1conc1C(=O)Nc1ccc(F)c([C@@]2(C)N=C(N)OCC2(F)F)c1", "note": "[Example 61, 4-Methyl-isoxazole-3-carboxylic acid [3-((R)-2-amino-5,5-difluoro-4-methyl-5,6-dihydro-4H-[1,3]oxazin-4-yl)-4-fluoro-phenyl]-amide]", "IC50": 305}, {"smiles": "C[C@]1(c2cc(NC(=O)c3cocn3)ccc2F)N=C(N)OCC1(F)F", "note": "[Example 55, Oxazole-4-carboxylic acid [3-((R)-2-amino-5,5-difluoro-4-methyl-5,6-dihydro-4H-[1,3]oxazin-4-yl)-4-fluoro-phenyl]-amide]", "IC50": 495}, {"smiles": "CC1(C)OC(N)=N[C@](C)(c2cc(NC(=O)c3ccc(OCC(F)(F)C(F)F)cn3)ccc2F)C1(F)F", "note": "[Example 30, 5-(2,2,3,3-Tetrafluoro-propoxy)-pyridine-2-carboxylic acid [3-((R)-2-amino-5,5-difluoro-4,6,6-trimethyl-5,6-dihydro-4H-[1,3]oxazin-4-yl)-4-fluoro-phenyl]-amide]", "IC50": 230}, {"smiles": "C[C@]1(c2cc(NC(=O)c3cnc(OCC4CC4)cn3)ccc2F)N=C(N)OCC1(F)F", "note": "[Example 46, 5-Cyclopropylmethoxy-pyrazine-2-carboxylic acid [3-((R)-2-amino-5,5-difluoro-4-methyl-5,6-dihydro-4H-[1,3]oxazin-4-yl)-4-fluoro-phenyl]-amide]", "IC50": 70}, {"smiles": "CCc1ocnc1C(=O)Nc1ccc(F)c([C@@]2(C)N=C(N)OCC2(F)F)c1", "note": "[Example 69, formate]", "IC50": 1480}, {"smiles": "C[C@]1(c2cc(NC(=O)c3ccc([N+](=O)[O-])o3)ccc2F)N=C(N)OCC1(F)F", "note": "[Example 81, 5-Nitro-furan-2-carboxylic acid [3-((R)-2-amino-5,5-difluoro-4-methyl-5,6-dihydro-4H-[1,3]oxazin-4-yl)-4-fluoro-phenyl]-amide]", "IC50": 1900}]}]}
